According to ChEMBL document CHEMBL1201862, “PubChem BioAssay data set” (2004):
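Step 1: Grow cells in 96-well plates. Step 2: Expose to compound for 48 hours at 5 concentrations. Step 3: Interpolate endpoints linearly; if unreached, use highest concentration. The concentration for 50% growth inhibition is given as GI50.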 The source made the active and inactive calls. Rule as the data show it: active = GI50 up to about 1.1 µM and inactive = higher.

Experiments:
Test in all cases: growth of human tumour cells (NCI), 48 h
MDA-MB-435 = system: MDA-MB-435
SF-295 = system: SF-295
EKVX = system: EKVX
CCRF-CEM = system: CCRF-CEM
NCI-H460 = system: NCI-H460
HCT-15 = system: HCT-15
Hs-578T = system: Hs-578T
KM12 = system: KM12
DU-145 = system: DU-145
MOLT-4 = system: MOLT-4
T47D = system: T47D
UO-31 = system: UO-31
CAKI-1 = system: CAKI-1
BT-549 = system: BT-549
OVCAR-4 = system: OVCAR-4
NCI-H522 = system: NCI-H522
SN12C = system: SN12C
A498 = system: A498
Malme-3M = system: Malme-3M
HCT-116 = system: HCT-116

Compound | GI50 (MDA-MB-435) | GI50 (SF-295) | GI50 (EKVX) | GI50 (CCRF-CEM) | GI50 (NCI-H460) | GI50 (HCT-15) [µM] | GI50 (Hs-578T) | GI50 (KM12) | GI50 (DU-145) | GI50 (MOLT-4) | GI50 (T47D) | GI50 (UO-31) | GI50 (CAKI-1) | GI50 (BT-549) | GI50 (OVCAR-4) | GI50 (NCI-H522) | GI50 (SN12C) | GI50 (A498) | GI50 (Malme-3M) | GI50 (HCT-116)
Oc1ccc(-c2cn3cc(C(F)(F)F)ccc3n2)cc1 | 41.2 µM (inactive) | 45.7 µM (inactive) | 56.2 µM (inactive) | 15.9 µM (inactive) | 32.1 µM (inactive) | 35.6 | > 100 µM (inactive) | 43.3 µM (inactive) | 30.6 µM (inactive) | 26.5 µM (inactive) | 18.3 µM (inactive) | 61.5 µM (inactive) | 60.1 µM (inactive) | 56.4 µM (inactive) | 55.7 µM (inactive) | 17.3 µM (inactive) | 72.3 µM (inactive) | 70.1 µM (inactive) | 71.8 µM (inactive) | 49.1 µM (inactive)
Clc1ccc(-c2noc(CN3CCCCC3)n2)cc1 | > 100 µM (inactive) | 66.8 µM (inactive) | 54 µM (inactive) | 77.1 µM (inactive) | > 100 µM (inactive) | > 100 | > 100 µM (inactive) | > 100 µM (inactive) | > 100 µM (inactive) | 49.7 µM (inactive) | 47.8 µM (inactive) | > 100 µM (inactive) | > 100 µM (inactive) | > 100 µM (inactive) | > 100 µM (inactive) | 81.1 µM (inactive) | > 100 µM (inactive) | > 100 µM (inactive) | > 100 µM (inactive) | 90.2 µM (inactive)
CC(C)=CCc1cc(C2COc3cc4c(c(O)c3C2=O)C=CC(C)(C)O4)c(O)cc1O (stereo not given) | 16 µM (inactive) | 17.8 µM (inactive) | 12.7 µM (inactive) | 7.53 µM (inactive) | 14.3 µM (inactive) | 13.7 | 17.8 µM (inactive) | 14.9 µM (inactive) | 14.5 µM (inactive) | 5.61 µM (inactive) | 4.99 µM (inactive) | 12.8 µM (inactive) | 17.2 µM (inactive) | 16.3 µM (inactive) | 10.6 µM (inactive) | 11.6 µM (inactive) | 13.5 µM (inactive) | 16.5 µM (inactive) | 13.4 µM (inactive) | 17.3 µM (inactive)
CCOC(=O)C1C(c2ccc(OC)cc2)c2c(n[nH]c2O)CC1(O)OCC (stereo not given) | > 100 µM (inactive) | 44.8 µM (inactive) | > 100 µM (inactive) | > 100 µM (inactive) | > 100 µM (inactive) | > 100 | > 100 µM (inactive) | > 100 µM (inactive) | > 100 µM (inactive) | > 100 µM (inactive) | > 100 µM (inactive) | > 100 µM (inactive) | > 100 µM (inactive) | > 100 µM (inactive) | > 100 µM (inactive) | > 100 µM (inactive) | > 100 µM (inactive) | > 100 µM (inactive) | > 100 µM (inactive) | > 100 µM (inactive)
C=CCNC1=C2C[C@@H](C)C[C@@H](OC)[C@H](OC(=O)CCN(C)C)[C@H](C)/C=C(\C)[C@@H](OC(N)=O)[C@H](OC)/C=C\C=C(/C)C(=O)NC(=CC1=O)C2=O | 0.053 µM (active) | 0.134 µM (active) | 1.35 µM (inactive) | 3.09 µM (inactive) | 0.0627 µM (active) | 0.535 | 12.1 µM (inactive) | 0.0342 µM (active) | 0.993 µM (active) | 1.53 µM (inactive) | 1.13 µM (inactive) | 0.822 µM (active) | 1.88 µM (inactive) | 12.9 µM (inactive) | 3.97 µM (inactive) | 0.125 µM (active) | 0.0869 µM (active) | 0.297 µM (active) | 0.0643 µM (active) | 0.134 µM (active)
CC(=O)OC(Cc1ccc2ccccc2n1)(C(F)(F)F)C(F)(F)F | 1.21 µM (inactive) | 4.5 µM (inactive) | 4.62 µM (inactive) | 0.0728 µM (active) | 6 µM (inactive) | 1.97 | 1.35 µM (inactive) | 4.7 µM (inactive) | 3.31 µM (inactive) | 0.0796 µM (active) | 0.181 µM (active) | 2.22 µM (inactive) | 0.802 µM (active) | 1.6 µM (inactive) | 2.45 µM (inactive) | 0.519 µM (active) | 1.27 µM (inactive) | 1.95 µM (inactive) | 0.849 µM (active) | 1.31 µM (inactive)
Cc1ccc(-c2n[nH]c(=O)[nH]2)cc1[N+](=O)[O-] | > 100 µM (inactive) | > 100 µM (inactive) | 0.643 µM (active) | > 100 µM (inactive) | > 100 µM (inactive) | > 100 | 3.01 µM (inactive) | > 100 µM (inactive) | > 100 µM (inactive) | > 100 µM (inactive) | > 100 µM (inactive) | 27.5 µM (inactive) | > 100 µM (inactive) | 36.8 µM (inactive) | > 100 µM (inactive) | > 100 µM (inactive) | > 100 µM (inactive) | > 100 µM (inactive) | > 100 µM (inactive) | > 100 µM (inactive)
COc1c(OC(C)=O)c(OC(C)=O)cc2c1-c1ccc(SC)c(=O)cc1C(NC(C)=O)CC2 (stereo not given) | 0.179 µM (active) | 1.45 µM (inactive) | 36.1 µM (inactive) | 0.384 µM (active) | 2.9 µM (inactive) | 9.77 | 0.22 µM (active) | 0.504 µM (active) | 0.583 µM (active) | 0.968 µM (active) | > 100 µM (inactive) | 71.9 µM (inactive) | 6.89 µM (inactive) | 0.201 µM (active) | 26 µM (inactive) | 0.204 µM (active) | 0.993 µM (active) | 4.02 µM (inactive) | 0.468 µM (active) | 0.685 µM (active)
